Our source for the refractive index values is the NIST ThermoML archive (doi:10.1021/acs.jced.8b00554).

Numbers after ± are expanded uncertainties.

The nature of this series: refractive index (Na D-line) (dimensionless). The conditions noted are these: 101.33 kPa, Liquid, Standard Abbe refractometry.

The term refractive index denotes the speed of light in vacuum divided by its phase velocity in the sample. For `CCCO` [propan-1-ol], the refractive index (293.15 K) is recorded as 1.3852 ± 0.004.
Same read-out and setting: in the case of `CCCCCCCCC` [nonane] it was 1.4056 ± 0.004.
Regarding `CCCCCCCCCC` [decane], where the note is “298.15 K”, the refractive index was determined as 1.4091 ± 0.004.
As to `CCCCCCCC` [octane], the refractive index (298.15 K) turned out to be 1.398 ± 0.004.
